Laboratory results taken from the supplement of paper PMC4862054.
Where “and” joins values, the source holds several entries; their conditions need not be identical. Equal values may be shown once.

How the values were obtained:
Assay in all cases: normalised viability (% of control), CellTiter-Blue; higher = more viable cells (about 100 = DMSO control)
Details in all cases: incubation time: 72 h
[1] = tested on: CAL-148
Method: (§1)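 DSRT, CellTiter-Blue viability, 72 h incubation. Signal is normalised to DMSO and benzethonium chloride controls. Value is the normalised response at dose 7.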

[2] = tested on: CAL-51
Method: as §1

[3] = tested on: CAL-85-1
Method: as §1

[4] = tested on: DU-4475
Method: as §1

[5] = tested on: HDQ-P1
Method: as §1

[6] = tested on: MDA-MB-453
Method: as §1

[7] = tested on: CAL-148; remark: listed apart in the source
Method: (§2)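 DSRT, CellTiter-Blue viability, 72 h incubation. Signal is normalised to DMSO and benzethonium chloride controls. Value is the normalised response at dose 8.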

[8] = tested on: CAL-51; remark: listed apart in the source
Method: as §2

[9] = tested on: CAL-85-1; remark: listed apart in the source
Method: as §2

[10] = tested on: DU-4475; remark: listed apart in the source
Method: as §2

[11] = tested on: HDQ-P1; remark: listed apart in the source
Method: as §2

[12] = tested on: MDA-MB-453; remark: listed apart in the source
Method: as §2

Compound | normalised viability [1] [%] | normalised viability [2] [%] | normalised viability [3] [%] | normalised viability [4] [%] | normalised viability [5] [%] | normalised viability [6] [%] | normalised viability [7] | normalised viability [8] | normalised viability [9] | normalised viability [10] | normalised viability [11] | normalised viability [12]
Cc1cc(Nc2cc(CN3CCOCC3)c3nc(C)c(Cc4ccc(Cl)cc4F)n3n2)n[nH]1 (1000 nM) | 94.6 | 85.8 | 86.5 | 94 | 72.5 | 53.3 |  |  |  |  |  | 
Cc1cc(Nc2cc(CN3CCOCC3)c3nc(C)c(Cc4ccc(Cl)cc4F)n3n2)n[nH]1 (3000 nM) |  |  |  |  |  |  | 76.1% | 38.2% | 59.4% | 52.4% | 35.5% | 60.7%
N#Cc1ccc(COC[C@H]2O[C@@H](n3c(NCc4ccc(Cl)c(Cl)c4)nc4c(N)ncnc43)[C@H](O)[C@@H]2O)cc1 (3000 nM) |  |  |  |  |  |  | 87.7% | 99.3% | 93% | 82.7% | 89.5% | 96%
COc1cc(OC2CCN(C)CC2)ccc1Nc1ncc2c(n1)n(C1CCCC1)c(=O)n2C [AZ 3146] (3000 nM) |  |  |  |  |  |  | 43.5% | 28% | 84.5% | 89% | 72.4% | 69.6%
CN(C)c1nc(N(C)C)nc(N(C)C)n1 [Altretamine] (3000 nM) |  |  |  |  |  |  | 97% | 114% | 97.8% | 115% | 99.9% | 108%
COC(=O)c1ccc2c(c1)NC(=O)/C2=C(\Nc1ccc(N(C)C(=O)CN2CCN(C)CC2)cc1)c1ccccc1 [BIBF 1120] (1000 nM) | 99 | 68.2 | 111 | 96.8 | 119 | 78.2 |  |  |  |  |  | 
COC(=O)c1ccc2c(c1)NC(=O)/C2=C(\Nc1ccc(N(C)C(=O)CN2CCN(C)CC2)cc1)c1ccccc1 [BIBF 1120] (3000 nM) |  |  |  |  |  |  | 94.8% | 62.7% | 91.1% | 97.1% | 91% | 59.8%
Nc1cc(C(F)(F)F)c(-c2cc(N3CCOCC3)nc(N3CCOCC3)n2)cn1 [BKM-120] (1000 nM) | 83.7 | 56.9 | 58.3 | 92.9 | 63.2 | 32.4 |  |  |  |  |  | 
Nc1cc(C(F)(F)F)c(-c2cc(N3CCOCC3)nc(N3CCOCC3)n2)cn1 [BKM-120] (3000 nM) |  |  |  |  |  |  | 18.8% | 10.4% | 27.3% | 38% | 27.7% | 11.9%
O=C(/C=C/c1cccc(S(=O)(=O)Nc2ccccc2)c1)NO [Belinostat] (3000 nM) |  |  |  |  |  |  | 3.16% | 9.77% | 16.4% | 1.84% | 39.1% | 2.18%
O=P1(N(CCCl)CCCl)NCCCO1 (stereo not drawn) [Cyclophosphamide] (12000 nM) |  |  |  |  |  |  | 97.2% | 105% | 93.7% | 104% | 110% | 109%
C=C1C[C@@H]2[C@H](CC[C@]3(C)C(=O)CC[C@@H]23)[C@@]2(C)C=CC(=O)C=C12 [Exemestane] (3000 nM) |  |  |  |  |  |  | 104% | 110% | 90.7% | 106% | 92.4% | 79%
COc1cc2ncnc(Nc3ccc(F)c(Cl)c3)c2cc1OCCCN1CCOCC1 [Gefitinib] (3000 nM) |  |  |  |  |  |  | 76% and 67.1% | 96.4% and 96.1% | 55.9% and 54% | 101% | 77% and 86.2% | 79.3% and 69.5%
O=C(Nc1ccncc1)C(=O)c1cn(Cc2ccc(Cl)cc2)c2ccccc12 [Indibulin] (3000 nM) |  |  |  |  |  |  | 83.8% | 25.5% | 39.7% | 22.6% | 54.7% | 39.5%
NC(=O)c1ccc(I)c([N+](=O)[O-])c1 [Iniparib] (3000 nM) |  |  |  |  |  |  | 97% | 93.8% | 84.5% | 88.1% | 93.9% | 85.1%
CCc1c2c(nc3ccc(OC(=O)N4CCC(N5CCCCC5)CC4)cc13)-c1cc3c(c(=O)n1C2)COC(=O)[C@]3(O)CC [Irinotecan] (3000 nM) |  |  |  |  |  |  | 28% and 42% | 49.9% and 64.2% | 63.7% and 73.4% | 44.3% and 57.5% |  | 73.3% and 90.7%
Oc1ccc2c(c1)CC[C@H](c1ccccc1)[C@@H]2c1ccc(OCCN2CCCC2)cc1 [Lasofoxifene] (300 nM) |  |  |  |  |  |  | 98.2% | 109% | 96.8% | 96.4% | 102% | 104%
Cc1ccc(NC(=O)c2ccc(CN3CCN(C)CC3)cc2)cc1Nc1nc(-c2cccnc2)cs1 [Masitinib] (3000 nM) |  |  |  |  |  |  | 74.8% | 115% | 94% | 125% | 103% | 65.5%
O=C(Nc1cccnc1)N1CCC(Cc2cccc(Oc3ccc(C(F)(F)F)cn3)c2)CC1 [PF-3845] (3000 nM) |  |  |  |  |  |  | 97.9% | 93.2% | 93.9% | 93.9% | 122% | 62.1%
